Reference: the NIST ThermoML archive (doi:10.1016/j.jct.2009.07.002)

Assay: isobaric coefficient of expansion
Conditions: Liquid, DSC with Pressure Shift

CCC(O)CC [3-pentanol]
isobaric coefficient of expansion
Conditions | 278.15 K | 288.15 K | 298.15 K | 308.15 K | 318.15 K | 328.15 K | 338.15 K | 348.15 K
5000 kPa | 0.000898 1/K | 0.000935 1/K | 0.000971 1/K | 0.00101 1/K | 0.00106 1/K | 0.00109 1/K | 0.00115 1/K | 0.0012 1/K
10000 kPa | 0.000875 1/K | 0.000916 1/K | 0.000952 1/K | 0.00099 1/K | 0.00103 1/K | 0.00107 1/K | 0.00113 1/K | 0.00117 1/K
15000 kPa | 0.000861 1/K | 0.000898 1/K | 0.000935 1/K | 0.00097 1/K | 0.00101 1/K | 0.00104 1/K | 0.0011 1/K | 0.00113 1/K
20000 kPa | 0.00085 1/K | 0.000882 1/K | 0.000917 1/K | 0.000953 1/K | 0.000989 1/K | 0.00103 1/K | 0.00107 1/K | 0.00111 1/K
25000 kPa | 0.000826 1/K | 0.000868 1/K | 0.000899 1/K | 0.000934 1/K | 0.00097 1/K | 0.00101 1/K | 0.00105 1/K | 0.00108 1/K
30000 kPa | 0.000814 1/K | 0.00085 1/K | 0.00088 1/K | 0.000919 1/K | 0.000952 1/K | 0.000983 1/K | 0.00102 1/K | 0.00106 1/K
35000 kPa | 0.000802 1/K | 0.000837 1/K | 0.000866 1/K | 0.000899 1/K | 0.000932 1/K | 0.000965 1/K | 0.001 1/K | 0.00103 1/K
40000 kPa | 0.000799 1/K | 0.000823 1/K | 0.000852 1/K | 0.000888 1/K | 0.000914 1/K | 0.000949 1/K | 0.000976 1/K | 0.00101 1/K
45000 kPa | 0.000766 1/K | 0.000807 1/K | 0.000839 1/K | 0.000869 1/K | 0.000897 1/K | 0.00093 1/K | 0.000953 1/K | 0.000986 1/K
50000 kPa | 0.000769 1/K | 0.000792 1/K | 0.000822 1/K | 0.000852 1/K | 0.000879 1/K | 0.000907 1/K | 0.000931 1/K | 0.00096 1/K
55000 kPa | 0.000743 1/K | 0.000771 1/K | 0.000806 1/K | 0.000837 1/K | 0.000862 1/K | 0.000887 1/K | 0.00091 1/K | 0.000936 1/K
